Measurements taken from PubChem BioAssay (NCI).
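Cells were grown in 96-well plates and exposed to each compound for 48 hours at five concentrations; endpoints were interpolated linearly between bracketing concentrations, or set to the highest concentration if not reached. GI50 is the concentration that inhibits growth by half. Definition used: TGI = concentration required for complete inhibition of growth.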

Experiments:
Assay in all cases: inhibition of tumour cell growth, NCI panel, 48 h
[1] = tested on: PC-3 prostate
[2] = tested on: NCI-H460 lung
[3] = tested on: SF-295 CNS
[4] = tested on: TK-10 renal
[5] = tested on: HOP-62 NSCLC
[6] = tested on: CCRF-CEM leukemia
[7] = tested on: SK-MEL-5 melanoma
[8] = tested on: A549 NSCLC
[9] = tested on: MOLT-4 leukemia
[10] = tested on: KM12 colon
[11] = tested on: SK-MEL-28 melanoma
[12] = tested on: HCT-116 colon
[13] = tested on: NCI-H23 lung
[14] = tested on: UO-31 renal
[15] = tested on: HT29 colon
[16] = tested on: UACC-62 melanoma
[17] = tested on: SK-MEL-2 melanoma
[18] = tested on: IGROV1 ovarian
[19] = tested on: COLO 205 colon
[20] = tested on: T-47D breast
[21] = tested on: BT-549 breast
[22] = tested on: HCC-2998 colon
[23] = tested on: SF-268 CNS
[24] = tested on: U251 CNS
[25] = tested on: NCI-H522 lung
[26] = tested on: NCI-H226 lung
[27] = tested on: 786-0 renal
[28] = tested on: MALME-3M melanoma
[29] = tested on: SNB-75 CNS
[30] = tested on: MDA-MB-435
[31] = tested on: NCI/ADR-RES ovarian
[32] = tested on: ACHN renal
[33] = tested on: UACC-257 melanoma
[34] = tested on: SF-539 CNS
[35] = tested on: MCF7 breast
[36] = tested on: A498 renal
[37] = tested on: CAKI-1 renal
[38] = tested on: SN12C renal
[39] = tested on: OVCAR-8 ovarian
[40] = tested on: HL-60(TB) leukemia
[41] = tested on: HOP-92 NSCLC
[42] = tested on: RXF 393 renal
[43] = tested on: K-562 leukemia
[44] = tested on: LOX IMVI melanoma
[45] = tested on: DU-145 prostate
[46] = tested on: SK-OV-3 ovarian
[47] = tested on: OVCAR-3 ovarian
[48] = tested on: EKVX NSCLC
[49] = tested on: OVCAR-4 ovarian
[50] = tested on: SNB-19 CNS
[51] = tested on: HCT-15 colon
[52] = tested on: M14 melanoma
[53] = tested on: MDA-MB-231 breast
[54] = tested on: OVCAR-5 ovarian
[55] = tested on: SW-620 colon
[56] = tested on: RPMI-8226 leukemia
[57] = tested on: HS 578T breast
[58] = tested on: SR leukemia

Nc1ccccc1C#C/C=C\C#Cc1ccccc1N showed a GI50 [1] of 7.39 µM, a TGI [1] of 29.1 µM and a GI50 [2] of 6.51 µM. For the same molecule, the TGI [2] was 80.4 µM, the GI50 [3] was 7.71 µM and the TGI [3] was 25.4 µM. It also gave a GI50 [4] of 8.33 µM, a TGI [4] of 36.1 µM and a GI50 [5] of 12.1 µM. The TGI [5] was 32.3 µM, the GI50 [6] was 3.93 µM and the TGI [6] was 32.4 µM. The GI50 [7] was 1.95 µM, the TGI [7] was 17.5 µM and the GI50 [8] was 41.5 µM. The TGI [8] was > 100 µM, the GI50 [9] was 1.04 µM and the TGI [9] was 17.3 µM. It also gave a GI50 [10] of 3.26 µM, a TGI [10] of 27.6 µM and a GI50 [11] of 28.7 µM. It also gave a TGI [11] of 82 µM, a GI50 [12] of 4.15 µM and a TGI [12] of 19.1 µM. It also gave a GI50 [13] of 18.6 µM, a TGI [13] of 62.9 µM and a GI50 [14] of 11.4 µM. For the same molecule, the TGI [14] was 34.1 µM, the GI50 [15] was 32 µM and the TGI [15] was > 100 µM. The GI50 [16] was 11.4 µM, the TGI [16] was 27.5 µM and the GI50 [17] was 16.3 µM. For the same molecule, the TGI [17] was 60.7 µM, the GI50 [18] was 34.6 µM and the TGI [18] was > 100 µM. For the same molecule, the GI50 [19] was 31.3 µM, the TGI [19] was > 100 µM and the GI50 [20] was 26.9 µM. For the same molecule, the TGI [20] was > 100 µM, the GI50 [21] was 11.5 µM and the TGI [21] was 41.2 µM. For the same molecule, the GI50 [22] was 0.0333 µM, the TGI [22] was 24.4 µM and the GI50 [23] was 10.7 µM. It also gave a TGI [23] of 37.9 µM, a GI50 [24] of 13.9 µM and a TGI [24] of 32.2 µM. It also gave a GI50 [25] of 16.3 µM, a TGI [25] of 44.5 µM and a GI50 [26] of 19.6 µM. For the same molecule, the TGI [26] was 53.8 µM, the GI50 [27] was 13.7 µM and the TGI [27] was 42.9 µM. For the same molecule, the GI50 [28] was 7.86 µM, the TGI [28] was 32.9 µM and the GI50 [29] was 29.4 µM. For the same molecule, the TGI [29] was > 100 µM, the GI50 [30] was 1.43 µM and the TGI [30] was 4.58 µM. It also gave a GI50 [31] of 2.26 µM, a TGI [31] of 7.95 µM and a GI50 [32] of 19.9 µM. The TGI [32] was 50.9 µM, the GI50 [33] was 41.3 µM and the TGI [33] was > 100 µM. For the same molecule, the GI50 [34] was 10.1 µM, the TGI [34] was 26.6 µM and the GI50 [35] was 9.98 µM. For the same molecule, the TGI [35] was > 100 µM, the GI50 [36] was 13.6 µM and the TGI [36] was 36 µM. For the same molecule, the GI50 [37] was 6.86 µM, the TGI [37] was 39 µM and the GI50 [38] was 21.8 µM. The TGI [38] was 54.4 µM, the GI50 [39] was 28.1 µM and the TGI [39] was 74.7 µM. For the same molecule, the GI50 [40] was 4.18 µM, the TGI [40] was 33.7 µM and the GI50 [41] was 1.2 µM. For the same molecule, the TGI [41] was 12.2 µM, the GI50 [42] was 16.8 µM and the TGI [42] was 47.6 µM. It also gave a GI50 [43] of 0.583 µM, a TGI [43] of 14.2 µM and a GI50 [44] of 17.9 µM. For the same molecule, the TGI [44] was 33.7 µM, the GI50 [45] was 26.8 µM and the TGI [45] was > 100 µM. The GI50 [46] was 23.2 µM, the TGI [46] was 54.9 µM and the GI50 [47] was 1.72 µM. For the same molecule, the TGI [47] was 9.1 µM, the GI50 [48] was 17 µM and the TGI [48] was 69.5 µM. The GI50 [49] was 34.2 µM, the TGI [49] was > 100 µM and the GI50 [50] was 48.9 µM. The TGI [50] was > 100 µM, the GI50 [51] was 14.1 µM and the TGI [51] was 33.3 µM. The GI50 [52] was 5.04 µM, the TGI [52] was 22.7 µM and the GI50 [53] was 12.5 µM. The TGI [53] was 30.4 µM, the GI50 [54] was 10.9 µM and the TGI [54] was 40.7 µM. The GI50 [55] was 2.91 µM and the TGI [55] was 18.4 µM.
COc1cc(Br)cc2cc(-c3cn4c(n3)sc3ccccc34)c(=O)oc12 was tested, and the TGI [1] was 41.2 µM, the TGI [2] was > 75 µM and the TGI [3] was 58.4 µM. The TGI [4] was > 75 µM, the TGI [5] was > 75 µM and the TGI [6] was > 75 µM. For the same molecule, the TGI [7] was > 75 µM, the TGI [8] was > 75 µM and the TGI [9] was 65.4 µM. For the same molecule, the TGI [10] was > 75 µM, the TGI [12] was > 75 µM and the TGI [13] was > 75 µM. The TGI [14] was > 75 µM, the TGI [15] was > 75 µM and the TGI [16] was > 75 µM. The TGI [17] was 70.6 µM, the TGI [18] was 34.9 µM and the TGI [19] was > 75 µM. The TGI [21] was 70.7 µM, the TGI [23] was > 75 µM and the TGI [24] was 72.1 µM. The TGI [25] was 28.7 µM, the TGI [27] was > 75 µM and the TGI [56] was 49.8 µM. For the same molecule, the TGI [57] was 39.9 µM, the TGI [30] was > 75 µM and the TGI [31] was > 75 µM. The TGI [32] was > 75 µM, the TGI [33] was > 75 µM and the TGI [34] was > 75 µM. For the same molecule, the TGI [35] was > 75 µM, the TGI [36] was 51 µM and the TGI [37] was > 75 µM. For the same molecule, the TGI [38] was > 75 µM, the TGI [39] was > 75 µM and the TGI [40] was 36.2 µM. The TGI [41] was 47.5 µM, the TGI [43] was 46.4 µM and the TGI [44] was 56.4 µM. The TGI [45] was 48.1 µM, the TGI [46] was > 75 µM and the TGI [47] was 54.5 µM. For the same molecule, the TGI [48] was 52.1 µM, the TGI [49] was > 75 µM and the TGI [50] was > 75 µM. For the same molecule, the TGI [51] was > 75 µM, the TGI [52] was > 75 µM and the TGI [53] was 72.5 µM. For the same molecule, the TGI [58] was > 75 µM, the TGI [54] was > 75 µM and the TGI [55] was > 75 µM.
